In ChEMBL document CHEMBL5512658, “Development of benzimidazole-based compounds as novel capsid assembly modulators for the treatment of HBV infection” (Eur J Med Chem, 2024):
The source made the active and inactive calls. The calls are words filed in the database; no cut-off is given here.

Legend:
Core antigen [1] = target: T1, Core antigen (Hepatitis B virus, UniProt Q03732); test: Inhibition of Hepatitis B virus core protein expressed in HBC cells derived from HEK293T cells assessed as reduction in HBcAg level incubated for 6 hrs by Nano-glo luciferase assay; assay type: cell-based
T1 sequence (Q03732 whole entry): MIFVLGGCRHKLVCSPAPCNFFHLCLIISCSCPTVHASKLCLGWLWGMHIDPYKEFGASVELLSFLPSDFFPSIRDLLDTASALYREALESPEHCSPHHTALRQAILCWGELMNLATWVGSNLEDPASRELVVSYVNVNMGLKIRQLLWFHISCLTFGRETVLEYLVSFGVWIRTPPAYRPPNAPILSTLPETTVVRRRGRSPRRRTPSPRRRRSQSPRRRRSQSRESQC

[2] = system: Hepatitis B virus core protein; test: Selectivity index, ratio of CC50 for human HepG2 cells to IC50 for Hepatitis B virus core protein expressed in HEK293T cells; assay type: toxicity, cell-based; conditions: read-out: Ratio CC50/IC50
HepG2 = test: Cytotoxicity against human HepG2 cells measured after 3 days by resazurin staining based analysis; assay type: functional; conditions: HepG2, 72 h, time 3 day
Hepatitis B virus [3] = test: Antiviral activity against HBV infected in human HePAD38 cells assessed as reduction HBV capsid level at 5 uM media replaced for every 2 to 3 days incubated for 7 days by Western blot analysis; assay type: functional, organism-based; conditions: time 7.0 day
Hepatitis B virus [4] = test: Antiviral activity against HBV infected in human HePAD38 cells assessed as inhibition of HBV capsid assembly by measuring secretion of particles containing HBV DNA at 5 uM incubated for 7 days by Southern blot analysis; assay type: functional, organism-based; conditions: time 7.0 day
Hepatitis B virus [5] = test: Antiviral activity against HBV infected in human HepAD38 cells assessed as inhibition of viral replication; assay type: functional, organism-based
Hepatitis B virus [6] = test: Antiviral activity against HBV infected in human HePAD38 cells assessed as reduction in intracellular core HBV DNA level media replaced for every 2 to 3 days incubated for 7 days by Western blot analysis; assay type: functional, organism-based
Core antigen [7] = target: T1, Core antigen; test: Inhibition of Hepatitis B virus core protein expressed in HBC cells derived from HEK293T cells assessed as reduction in HBcAg level […] incubated for 6 hrs by Nano-glo luciferase assay; assay type: cell-based

Row | EC50 (Hepatitis B virus [5]) | IC50 (Core antigen [1]; hbc) | SMILES | IC50 (Core antigen [1]; read-out: IC50) | selectivity ratio [2] | CC50 (HepG2) | Activity (Hepatitis B virus [3]) | Activity (Hepatitis B virus [4]) | EC50 (Hepatitis B virus [6]) | IC50 (Core antigen [7])
1 |  |  | Clc1cccc(Sc2nc3ccccc3[nH]2)c1 | 26.5 µM | > 3.77 | > 100 µM |  |  |  | 
2 |  |  | CCCn1c(Cc2ccc(OC)cc2)nc2ccccc21 | 11.4 µM | > 8.79 | > 100 µM |  |  |  | 
3 |  |  | CCOC(=O)n1c(Cc2ccc(OC)cc2)nc2ccccc21 | 2.18 µM | 20.3 | 44.2 µM | Active | Active |  | 
4 |  |  | CCn1c(Cc2ccc(OC)cc2)nc2ccccc21 | 4.51 µM | 6.55 | 29.5 µM |  |  |  | 
5 |  |  | COc1ccc(Cc2nc3ccccc3n2C2CCC2)cc1 | 27.2 µM | 3.29 | 89.6 µM |  |  |  | 
6 | 0.29 µM |  | O=C(NCc1cc(F)c(F)c(F)c1)c1ccc(F)c(S(=O)(=O)N2CCC(O)CC2)c1 |  |  |  |  |  |  | 
7 |  |  | COc1ccc(Cc2nc3ccccc3n2C(C)=O)cc1 | 1.57 µM | 27.2 | 42.8 µM |  | Active | 16.1 µM | 
8 |  |  | COc1ccc(Nc2nc3ccccc3[nH]2)cc1 | 6.13 µM | 10.7 | 65.6 µM |  |  |  | 
9 | 0.0243 µM |  | COC(=O)C1=C(C)NC(c2ncc(F)cc2F)=N[C@H]1c1ccc(F)cc1Cl |  |  |  |  |  |  | 
10 |  |  | COc1ccc(Cc2nc3ccccc3n2CCCOc2cccnc2)cc1 | 1.21 µM | 11.1 | 13.4 µM |  |  |  | 
11 |  |  | CCCCCn1c(Cc2ccc(OC)cc2)nc2ccccc21 | 7.63 µM | 6.1 | 46.5 µM |  |  |  | 
12 |  |  | COc1ccc(Cc2nc3ccccc3n2-c2ccccc2)cc1 | 52.9 µM |  | 14.2 µM |  |  |  | 
13 |  |  | COc1ccc(Cc2nc3ccccc3n2CC(O)CO)cc1 (stereo not given) | 3.07 µM | > 32.6 | > 100 µM |  |  |  | 
14 |  |  | COc1ccc(Cc2nc3ccccc3n2CCCBr)cc1 | 7.85 µM | 3.34 | 26.2 µM |  |  |  | 
15 |  |  | COCCCn1c(Cc2ccc(OC)cc2)nc2ccccc21 | 9.65 µM | > 10.4 | > 100 µM | Active | Active |  | 
16 |  |  | COc1ccc(Sc2nc3ccccc3[nH]2)cc1 | 1.08 µM | 7.53 | 8.13 µM | Active | Active | 2 µM | 
17 |  |  | Brc1ccc(Sc2nc3ccccc3[nH]2)cc1 | 1.8 µM | 7.73 | 13.9 µM |  |  |  | 
18 |  |  | COc1ccc(Cc2nc3ccccc3n2CCCCCO)cc1 | 0.95 µM | 31.1 | 29.5 µM | Active | Active | 15.9 µM | 
19 |  |  | COc1ccc(Cc2nc3ccccc3n2C)cc1 | 4.85 µM | 4.55 | 22.1 µM | Active | Active |  | 
20 |  | Not Active | COc1ccc(Oc2nc3ccccc3[nH]2)cc1 |  |  | > 100 µM |  |  |  | 
21 |  |  | COc1ccc(Cc2nc3ccccc3n2CC(=O)COc2ccccc2)cc1 | 3.67 µM | 2.79 | 10.2 µM |  |  |  | 

Row | EC50 (Hepatitis B virus [5]) | IC50 (Core antigen [1]; hbc) | SMILES | IC50 (Core antigen [1]; read-out: IC50) | selectivity ratio [2] | CC50 (HepG2) | Activity (Hepatitis B virus [3]) | Activity (Hepatitis B virus [4]) | EC50 (Hepatitis B virus [6]) | IC50 (Core antigen [7])
22 |  |  | COc1ccc(CCc2nc3ccccc3[nH]2)cc1 | 34.3 µM | > 2.91 | > 100 µM | Active | Active |  | 
23 |  |  | COc1ccc(Cc2nc3ccccc3n2CCCNc2ccccc2)cc1 | 1.26 µM | 9.73 | 12.3 µM |  |  |  | 
24 |  |  | COc1ccc(Cc2nc3ccccc3n2CCCCO)cc1 | 2.45 µM | 14.1 | 34.4 µM | Active | Active |  | 
25 |  |  | OCCn1c(Sc2ccc(Cl)cc2)nc2ccccc21 | 3.6 µM | 14.1 | 50.7 µM |  |  | 6.37 µM | 
26 |  |  | Cc1ccc(Sc2nc3ccccc3[nH]2)cc1 | 6.81 µM | 8.96 | 61 µM |  |  |  | 
27 |  |  | COc1ccc(Cc2nc3ccccc3n2CCO)cc1 | 2.37 µM | > 42.2 | > 100 µM | Active | Active |  | 
28 |  |  | COc1ccc(Cc2nc3ccccc3[nH]2)cc1 | 2.05 µM | > 48.8 | > 100 µM |  | Active | 11.9 µM | 
29 |  |  | COc1ccc(Cc2nc3ccccc3n2CCCOc2ccccc2)cc1 | 1.25 µM | 10.2 | 12.7 µM |  |  |  | 
30 |  |  | COc1ccc(Cc2nc3ccccc3n2CC(O)COc2ccccc2)cc1 (stereo not given) | 1.99 µM | 6.18 | 12.3 µM |  |  | 0.07 µM | 
31 |  |  | Clc1ccc(Sc2nc3ccccc3[nH]2)cc1 | 2.94 µM | 4.65 | 13.7 µM |  |  |  | 
32 |  |  | COc1ccc(Sc2nc3ccccc3n2CCCCCO)cc1 | 0.6 µM | > 167 | > 100 µM | Active | Active | 5.7 µM | 
33 |  |  | COCC(O)Cn1c(Cc2ccc(OC)cc2)nc2ccccc21 (stereo not given) | 3.32 µM | > 30.1 | > 100 µM |  |  |  | 
34 |  |  | Clc1ccc(Sc2nc3ccccc3[nH]2)cc1Cl | 11.1 µM | > 9.03 | > 100 µM |  |  |  | 
35 |  |  | COc1ccc(Cc2nc3ccccc3n2CCCCCCO)cc1 | 3.36 µM | 9.02 | 30.3 µM | Active |  |  | 
36 |  |  | COc1ccc(Cc2nc3ccccc3n2C[C@H](O)COc2ccccc2)cc1 | 2.46 µM | 6.18 | 15.2 µM |  |  |  | 
37 |  |  | COc1ccc(Cc2nc3ccccc3n2CCCCc2ccccc2)cc1 | 27.7 µM | 1.61 | 44.6 µM |  |  |  | 
38 |  |  | COc1ccc(Sc2nc3ccccc3n2C)cc1 | 5.68 µM | 4.54 | 25.8 µM |  |  |  | 
39 |  |  | CCc1ccc(Sc2nc3ccccc3n2CCO)cc1 | 4.5 µM | 18.4 | 82.8 µM |  |  |  | 
40 |  |  | COc1ccc(Cc2nc3ccccc3s2)cc1 |  |  | 32.6 µM |  |  |  | Not Active
41 |  |  | COc1ccc(-c2nc3ccccc3[nH]2)cc1 |  |  | 10.3 µM |  |  |  | Not Active
42 |  | Not Active | Fc1cccc(Sc2nc3ccccc3[nH]2)c1 |  |  | > 100 µM |  |  |  | 

Row | EC50 (Hepatitis B virus [5]) | IC50 (Core antigen [1]; hbc) | SMILES | IC50 (Core antigen [1]; read-out: IC50) | selectivity ratio [2] | CC50 (HepG2) | Activity (Hepatitis B virus [3]) | Activity (Hepatitis B virus [4]) | EC50 (Hepatitis B virus [6]) | IC50 (Core antigen [7])
43 |  |  | Fc1ccc(Sc2nc3ccccc3[nH]2)cc1 | 12 µM | 1.11 | 13.3 µM |  |  |  | 
44 |  |  | CCCCn1c(Cc2ccc(OC)cc2)nc2ccccc21 | 6.48 µM | > 15.4 | > 100 µM |  |  |  | 
45 |  |  | OCCn1c(Sc2ccc(Br)cc2)nc2ccccc21 | 2.01 µM | 35.7 | 71.8 µM |  |  | 1.99 µM | 
46 |  |  | OCCn1c(Sc2ccc(F)cc2)nc2ccccc21 | 22.2 µM | 3.82 | 84.7 µM |  |  |  | 
47 |  |  | COc1ccc(Cc2nc3ccccc3n2C(C)C)cc1 | 41.5 µM | 0.96 | 37.1 µM |  |  |  | 
48 |  |  | Fc1cc(F)cc(Sc2nc3ccccc3[nH]2)c1 | 19.7 µM | > 5.07 | > 100 µM |  |  |  | 
49 |  |  | COc1ccc(Cc2nc3ccccc3o2)cc1 | 36.3 µM | > 2.76 | > 100 µM |  |  |  | 
50 |  |  | CCOC(=O)Cn1c(Cc2ccc(OC)cc2)nc2ccccc21 | 9.41 µM | 2.35 | 22.1 µM |  |  |  | 
51 |  |  | COc1ccc(Cc2nc3ccccc3n2CCCO)cc1 | 4.17 µM | > 24 | > 100 µM |  | Active |  | 
52 |  |  | OCCn1c(Sc2ccc(Cl)c(Cl)c2)nc2ccccc21 | 7 µM | > 14.3 | > 100 µM |  |  |  | 
53 |  |  | COc1ccc(CCCc2nc3ccccc3[nH]2)cc1 | 22.8 µM | 2.06 | 47 µM | Active | Active |  | 
54 |  |  | OCCn1c(Sc2cccc(F)c2)nc2ccccc21 | 49.3 µM | > 2.03 | > 100 µM |  |  |  | 
55 |  |  | COc1ccc(Cc2nc3ccccc3n2CCCOC(C)=O)cc1 | 14 µM | > 7.15 | > 100 µM |  | Active |  | 
56 |  |  | COc1ccc(C2(c3nc4ccccc4[nH]3)CC2)cc1 | 21.8 µM | > 4.58 | > 100 µM |  |  |  | 
57 |  |  | COc1ccc(S(=O)(=O)c2nc3ccccc3[nH]2)cc1 | 26.9 µM | 2.42 | 65.2 µM |  |  |  | 
58 |  |  | COc1ccc(Cc2nc3ccccc3n2C[C@@H](O)COc2ccccc2)cc1 | 2.41 µM | 4.03 | 9.72 µM |  |  |  | 
59 |  |  | COc1ccc(Sc2nc3ccccc3n2C(C)=O)cc1 | 12 µM | > 8.37 | > 100 µM |  |  |  | 
60 |  |  | COc1ccc([S+]([O-])c2nc3ccccc3[nH]2)cc1 (stereo not given) | 36.5 µM | 0.93 | 34 µM |  |  |  | 
61 |  |  | CCc1ccc(Sc2nc3ccccc3[nH]2)cc1 | 3.93 µM | 4.37 | 17.2 µM |  |  |  | 
62 |  |  | COCC(Cn1c(Cc2ccc(OC)cc2)nc2ccccc21)OC (stereo not given) | 19.8 µM | > 5.06 | > 100 µM |  |  |  | 
